Laboratory results published in US10918623B2, “Methods of treating influenza” (Biotron Limited, priority 2017, dated 2021).

Assays:
Assay type in all cases: cell-based
[1] = test system: SHIV-1M2 (ion channel sequence of influenza A M2)
[2] = test system: PR8 4C [A30T] M2 mutant amantadine resistant influenza A virus
[3] = test system: Influenza B

SMILES	Virus released into the culture supernatant as measured by viral p27 protein [1]	EC50 [2]	EC90 [2]	Comments [3]	Shift in drug sensitivity caused by the A30T mutation in M2 [2]
Cn1cc(-c2cccc3cc(C(=O)NC(=N)N)ccc23)cn1 [BIT225, N-carbamimidoyl-5-(1-methyl-1H-pyrazol-4-yl)-2-naphthamide]	reduced virus released	~10 µM	18 µM	Active	–
NC12CC3CC(CC(C3)C1)C2 [amantadine, reference compound]	–	–	–	–	large shift in drug sensitivity
